Read-outs that look alike come from different tables or passages of the source.
Experiments:
MK2 [1] = target: T1, MK2 (Homo sapiens (Human), UniProt P49137)
Method: Aliquots of the resulting mixture (6 μL each) were diluted with 0.2% trifluoroacetic acid (TFA, 10 μL) prior to micro C4 ZipTipping directly onto the MALDI target using sinapinic acid as the desorption matrix (10 mg/ml in 0.1% TFA:acetonitrile 50:50, v/v). The centroid mass of the target protein in the control sample was compared with the centroid mass of the target protein incubated with compound. A shift in the centroid mass of the treated protein compared to the untreated protein was divided by the molecular weight of the compound. This number corresponds to the percentage of modified protein (a measure of the proportion of total target protein covalently bound to the test compound) after one hour incubation.
3 μL of magnetic Ni-NTA beads were added to the 6 μL aliquots of sample, washed, eluted with 0.2% trifluoroacetic acid (TFA, 2 μL), and spotted directly onto the MALDI target using sinapinic acid as the desorption matrix (10 mg/ml in 0.1% TFA:acetonitrile 50:50, v/v). The centroid mass of the target protein in the control sample was compared with the centroid mass of the target protein incubated with compound. A shift in the centroid mass of the treated protein compared to the untreated protein was divided by the molecular weight of the compound. This number corresponds to the percentage of modified protein (a measure of the proportion of total target protein covalently bound to the test compound) after one hour incubation.

[2] = target: p38α activated, mitogen-activated protein kinase-activated protein kinase 2 (MAPKAP-K2 or MK2) enzyme (Homo sapiens (Human), UniProt P49137); assay: MK2 Omnia continuous-read kinase assay for compound potency; type: biochemical
In short: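 Activated MK2 (0.4 nM) was run with S/T3-Sox peptide and ATP, each at 10 μM (ATP at apparent KM), and Sox fluorescence was followed every 71 s for 2 h at room temperature. IC50 came from linear initial rates after no-enzyme subtraction, and apparent kinact/KI from kobs of single-exponential fits.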

MK2 [3] = target: T1, MK2; assay: MK2 cellular assay, total and phospho-Hsp27 (Serine 78) by MSD ELISA (Thp1); type: cell-based
In short: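 PMA-differentiated (10 ng/mL, 72 h) Thp-1 cells were pretreated with compound (top 3000 nM) for 1 h at 37 °C, then stimulated with 50 ng/mL LPS for 45 min. Lysate phospho-Hsp27 (Ser78) and total Hsp27 were read by MSD electrochemiluminescence ELISA, and the value is expressed as percent phospho/total signal per well.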

[4] = percentage of modified protein after 60 minutes at room temperature, 10-fold excess of compound, MALDI (I-1 to I-50), magnetic bead MALDI (I-51 to I-129)
[5] = [MK-2]=0.4 nM, [ATP]=10 μM, [ST3-Sox]=10 μM, read-out: MK2 IC50
[6] = Thp-1 cells, 1 hour compound, 50 ng/mL LPS 45 minutes, p-HSP27 (Ser78)/total HSP27, read-out: pHSP27 signaling EC50
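Throughout, for Mass Modification: covalent binding read from centroid mass shift of compound-treated versus untreated intact MK2, shift divided by compound molecular weight, giving fraction of total protein bound.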

T1 sequence (P49137 whole entry): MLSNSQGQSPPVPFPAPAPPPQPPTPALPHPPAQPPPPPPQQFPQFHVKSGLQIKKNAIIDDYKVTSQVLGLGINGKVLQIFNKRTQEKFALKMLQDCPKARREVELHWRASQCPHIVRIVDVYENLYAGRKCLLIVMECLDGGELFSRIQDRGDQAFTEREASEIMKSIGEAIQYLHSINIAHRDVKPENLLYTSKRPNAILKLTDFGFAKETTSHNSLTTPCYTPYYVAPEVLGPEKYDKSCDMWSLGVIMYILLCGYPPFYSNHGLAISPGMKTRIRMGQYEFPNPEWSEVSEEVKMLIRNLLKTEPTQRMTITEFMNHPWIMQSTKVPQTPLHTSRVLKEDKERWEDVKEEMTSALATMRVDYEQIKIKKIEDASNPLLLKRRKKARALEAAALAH
Sequence of p38α activated, mitogen-activated protein kinase-activated protein kinase 2 (MAPKAP-K2 or MK2) enzyme (P49137 whole entry): as above

| SMILES | Mass Modification (MK2 [1]; [4]) | IC50 [2, 5] [µM] | EC50 (MK2 [3]; [6]) [µM] | IC50 [2] [µM] | EC50 (MK2 [3]) [µM] | Mass Modification (MK2 [1]) | IC50 ([2]; read-out: MK2 IC50) [µM] |
| --- | --- | --- | --- | --- | --- | --- | --- |
| C[C@@H]1CNc2c(sc3ccc4nc(Oc5cnnc(Cl)c5)ccc4c23)C(=O)N1 [I-79, (R)-3-((6-chloropyridazin-4-yl)oxy)-10-methyl-9,10,11,12-tetrahydro-8H-[1,4]diazepino[5′,6′:4,5]thieno[3,2-f]quinolin-8-one] | E (mass modification of ≧70%) | < 0.1 | 0.101 to 0.5 | – | – | – | – |
| C[C@@H]1CNc2c(sc3ccc4nc(Oc5nc(Cl)ncc5CN5CC6CC6C5)ccc4c23)C(=O)N1 (stereo partly drawn) [I-83, ((1OR)-3-((5-(3-azabicyclo[3.1.0]hexan-3-yl)methyl)-2-chloropyrimidin-4-yl)oxy)-10-methyl-9,10,11,12-tetrahydro-8H-[1,4]diazepino[5′,6′:4,5]thieno[3,2-f]quinolin-8-one] | E (mass modification of ≧70%) | 0.101 to 0.5 | < 0.1 | – | – | – | – |
| C[C@@H]1CNc2c(sc3ccc4nc(Oc5nc(Cl)ncc5CN5CC6CC(C6)C5)ccc4c23)C(=O)N1 [I-85, (R)-3-((5-((3-azabicyclo[3.1.1]heptan-3-yl)methyl)-2-chloropyrimidin-4-yl)oxy)-10-methyl-9,10,11,12-tetrahydro-8H-[1,4]diazepino[5′,6′:4,5]thieno[3,2-f]quinolin-8-one] | E (mass modification of ≧70%) | – | – | 0.101 to 0.5 | < 0.1 | – | – |
| C[C@@H]1CNc2c(sc3ccc4nc(Oc5nc(Cl)nc6c5COC6)ccc4c23)C(=O)N1 [I-86, (R)-3-((2-chloro-5,7-dihydrofuro[3,4-d]pyrimidin-4-yl)oxy)-10-methyl-9,10,11,12-tetrahydro-8H-[1,4]diazepino[5′,6′:4,5]thieno[3,2-f]quinolin-8-one] | E (mass modification of ≧70%) | < 0.1 | < 0.1 | – | – | – | – |
| COCCN(C)Cc1cnc(Cl)nc1Oc1ccc2c(ccc3sc4c(c32)NC[C@@H](C)NC4=O)n1 [I-90, (R)-3-((2-chloro-5-(((2-methoxyethyl)(methyl)amino)methyl)pyrimidin-4-yl)oxy)-10-methyl-9,10,11,12-tetrahydro-8H-[1,4]diazepino[5′,6′:4,5]thieno[3,2-f]quinolin-8-one] | E (mass modification of ≧70%) | 0.101 to 0.5 | < 0.1 | – | – | – | – |
| CCN1CCN(Cc2cnc(Cl)nc2Oc2ccc3c(ccc4sc5c(c43)NC[C@@H](C)NC5=O)n2)CC1 [I-94, (R)-3-((2-chloro-5-((4-ethylpiperazin-1-yl)methyl)pyrimidin-4-yl)oxy)-10-methyl-9,10,11,12-tetrahydro-8H-[1,4]diazepino[5′,6′:4,5]thieno[3,2-f]quinolin-8-one] | E (mass modification of ≧70%) | 0.101 to 0.5 | > 1 | – | – | – | – |
| C[C@@H]1CNc2c(sc3ccc4nc(Oc5nc(Cl)ncc5CN5CCCC(C)(C)C5)ccc4c23)C(=O)N1 [I-95, (R)-3-((2-chloro-5-((3,3-dimethylpiperidin-1-yl)methyl)pyrimidin-4-yl)oxy)-10-methyl-9,10,11,12-tetrahydro-8H-[1,4]diazepino[5′,6′:4,5]thieno[3,2-f]quinolin-8-one] | E (mass modification of ≧70%) | 0.101 to 0.5 | < 0.1 | – | – | – | – |
| C[C@@H]1CNc2c(sc3ccc4nc(Oc5nc(Cl)ncc5COC5(C)COC5)ccc4c23)C(=O)N1 [I-103, (R)-3-((2-chloro-5-(((3-methyloxetan-3-yl)oxy)methyl)pyrimidin-4-yl)oxy)-10-methyl-9,10,11,12-tetrahydro-8H-[1,4]diazepino[5′,6′:4,5]thieno[3,2-f]quinolin-8-one] | E (mass modification of ≧70%) | < 0.1 | 0.101 to 0.5 | – | – | – | – |
| C[C@@H]1CNc2c(sc3ccc4nc(Oc5nc(Cl)nc6c5CS(=O)(=O)CC6)ccc4c23)C(=O)N1 [I-105, (R)-3-((2-chloro-6,6-dioxido-7,8-dihydro-5H-thiopyrano[4,3-d]pyrimidin-4-yl)oxy)-10-methyl-9,10,11,12-tetrahydro-8H-[1,4]diazepino[5′,6′:4,5]thieno[3,2-f]quinolin-8-one] | E (mass modification of ≧70%) | < 0.1 | 0.101 to 0.5 | – | – | – | – |
| CO[C@@H]1CCCN(Cc2cnc(Cl)nc2Oc2ccc3c(ccc4sc5c(c43)NC[C@@H](C)NC5=O)n2)C1 [I-107, (R)-3-((2-chloro-5-(((R)-3-methoxypiperidin-1-yl)methyl)pyrimidin-4-yl)oxy)-10-methyl-9,10,11,12-tetrahydro-H-[1,4]diazepino[5′,6′:4,5]thieno[3,2-f]quinolin-8-one] | E (mass modification of ≧70%) | 0.101 to 0.5 | < 0.1 | – | – | – | – |
| C[C@@H]1CNc2c(sc3ccc4nc(Oc5nc(Cl)ncc5COCCC#N)ccc4c23)C(=O)N1 [I-111, (R)-3-((2-chloro-4-((10-methyl-8-oxo-9,10,11,12-tetrahydro-8H-[1,4]diazepino[5′,6′:4,5]thieno[3,2-f]quinolin-3-yl)oxy)pyrimidin-5-yl)methoxy)propanenitrile] | E (mass modification of ≧70%) | < 0.1 | 0.101 to 0.5 | – | – | – | – |
| C[C@@H]1CNc2c(sc3ccc4nc(Oc5nc(Cl)ncc5CS(C)(=O)=O)ccc4c23)C(=O)N1 [I-112, (R)-3-((2-chloro-5-((methylsulfonyl)methyl)pyrimidin-4-yl)oxy)-10-methyl-9,10,11,12-tetrahydro-8H-[1,4]diazepino[5′,6′:4,5]thieno[3,2-f]quinolin-8-one] | E (mass modification of ≧70%) | < 0.1 | 0.101 to 0.5 | – | – | – | – |
| C[C@@H]1CNc2c(sc3ccc4nc(Oc5nc(Cl)ncc5CN5C6CCC5COC6)ccc4c23)C(=O)N1 [I-114, (R)-3-((5-((3-oxa-8-azabicyclo[3.2.1]octan-8-yl)methyl)-2-chloropyrimidin-4-yl)oxy)-10-methyl-9,10,11,12-tetrahydro-8H-[1,4]diazepino[5′,6′:4,5]thieno[3,2-f]quinolin-8-one] | E (mass modification of ≧70%) | – | – | 0.101 to 0.5 | < 0.1 | – | – |
| C[C@@H]1CNc2c(sc3ccc4nc(Oc5nc(Cl)ncc5CN5C[C@@H](C)N[C@@H](C)C5)ccc4c23)C(=O)N1 [I-115, (R)-3-((2-chloro-5-(((3R,5S)-3,5-dimethylpiperazin-1-yl)methyl)pyrimidin-4-yl)oxy)-10-methyl-9,10,11,12-tetrahydro-8H-[1,4]diazepino[5′,6′:4,5]thieno[3,2-f]quinolin-8-one] | E (mass modification of ≧70%) | 0.101 to 0.5 | > 1 | – | – | – | – |
| C[C@@H]1CNc2c(sc3ccc4nc(Oc5nc(Cl)ncc5Br)ccc4c23)C(=O)N1 [I-116, (R)-3-((5-bromo-2-chloropyrimidin-4-yl)oxy)-10-methyl-9,10,11,12-tetrahydro-8H-[1,4]diazepino[5′,6′:4,5]thieno[3,2-f]quinolin-8-one] | E (mass modification of ≧70%) | < 0.1 | < 0.1 | – | – | – | – |
| C[C@@H]1CNc2c(sc3ccc4nc(Oc5cc(CN(C)C(C)(C)C)nc(Cl)n5)ccc4c23)C(=O)N1 [I-118, (R)-3-((6-((tert-butyl(methyl)amino)methyl)-2-chloropyrimidin-4-yl)oxy)-10-methyl-9,10,11,12-tetrahydro-8H-[1,4]diazepino[5′,6′:4,5]thieno[3,2-f]quinolin-8-one] | E (mass modification of ≧70%) | 0.501 to 0.999 | 0.101 to 0.5 | – | – | – | – |
| C[C@@H]1CNc2c(sc3ccc4nc(Oc5nc(F)nc6c5COC6)ccc4c23)C(=O)N1 [I-119, (R)-3-((2-fluoro-5,7-dihydrofuro[3,4-d]pyrimidin-4-yl)oxy)-10-methyl-9,10,11,12-tetrahydro-8H-[1,4]diazepino[5′,6′:4,5]thieno[3,2-f]quinolin-8-one] | F (mass modification of 31-69%) | < 0.1 | < 0.1 | – | – | – | – |
| C[C@@H]1CNc2c(sc3ccc4nc(Oc5nc(Cl)ncc5C5=CCN(C)CC5)ccc4c23)C(=O)N1 [I-122] | E (mass modification of ≧70%) | < 0.1 | 0.101 to 0.5 | – | – | – | – |
| C[C@@H]1CNc2c(sc3ccc4nc(Oc5nc(Cl)ncc5C5=CCOCC5)ccc4c23)C(=O)N1 [I-124, (R)-3-((2-chloro-5-(3,6-dihydro-2H-pyran-4-yl)pyrimidin-4-yl)oxy)-10-methyl-9,10,11,12-tetrahydro-8H-[1,4]diazepino[5′,6′:4,5]thieno[3,2-f]quinolin-8-one] | E (mass modification of ≧70%) | < 0.1 | 0.101 to 0.5 | – | – | – | – |
| C[C@@H]1CNc2c(sc3ccc4nc(Oc5nc(Cl)nc6c5CN(C)CC6)ccc4c23)C(=O)N1 [I-126, (R)-3-((2-chloro-6-methyl-5,6,7,8-tetrahydropyrido[4,3-d]pyrimidin-4-yl)oxy)-10-methyl-9,10,11,12-tetrahydro-8H-[1,4]diazepino[5′,6′:4,5]thieno[3,2-f]quinolin-8-one] | – | – | < 0.1 | – | – | E (key: E: mass modification of ≧70%; F: mass modification of 31-69%; G: mass modification ≦30%) | < 0.1 |
